From patent US7449617B2, “Plants with elevated levels of gallic acid/polyphenol oxidase and methods of generating such plants” (The Regents of the University of California, priority 2004, dated 2008)

System: buffered rumen fluid
Assay: In vitro gas production technique: incubation of alfalfa hays in buffered rumen fluid with added tannins, net ammonium-N in supernatant
Design: species or system cows
Details: for % Difference from control / Net ammonium-N in supernatant: 72 h; for Net ammonium-N in supernatant: 30 ml buffered rumen fluid, SD in parenthesis; for Effect on ammonia-N (in words): in vitro rumen fluid system, preliminary study
Description: A preliminary in vitro study was conducted to evaluate GA and TA (tannic acid) and to compare this with CT (a source of condensed tannins). The study utilized an in vitro gas production technique that has been established and validated at UC Davis. This system uses canulated cows as a rumen fluid donor. […] The reduction in protein degradation and ammonia nitrogen accumulation was dependant on type of tannins and levels used in each of the experiments. […] [table]

[1] = CUF101, tannin added at 2% DM, Experiment 1
[2] = CUF101, tannin added at 4% DM, Experiment 1
[3] = CUF101, tannin added at 5% DM, Experiment 2
[4] = CUF101, tannin added at 6% DM, Experiment 1
[5] = CUF101, tannin added at 10% DM, Experiment 2
[6] = CUF101, tannin added at 15% DM, Experiment 2
[7] = CUF101 alfalfa hay 200 mg, tannin added at 2% DM, Experiment 1
[8] = CUF101 alfalfa hay 200 mg, tannin added at 4% DM, Experiment 1
[9] = CUF101 alfalfa hay 200 mg, tannin added at 5% DM, Experiment 2
[10] = CUF101 alfalfa hay 200 mg, tannin added at 6% DM, Experiment 1
[11] = CUF101 alfalfa hay 200 mg, tannin added at 10% DM, Experiment 2
[12] = CUF101 alfalfa hay 200 mg, tannin added at 15% DM, Experiment 2
[13] = Sutter alfalfa hay 200 mg, tannin added at 2% DM, Experiment 1
[14] = Sutter alfalfa hay 200 mg, tannin added at 4% DM, Experiment 1
[15] = Sutter alfalfa hay 200 mg, tannin added at 5% DM, Experiment 2
[16] = Sutter alfalfa hay 200 mg, tannin added at 6% DM, Experiment 1
[17] = Sutter alfalfa hay 200 mg, tannin added at 10% DM, Experiment 2
[18] = Sutter alfalfa hay 200 mg, tannin added at 15% DM, Experiment 2
[19] = Sutter, tannin added at 2% DM, Experiment 1
[20] = Sutter, tannin added at 4% DM, Experiment 1
[21] = Sutter, tannin added at 5% DM, Experiment 2
[22] = Sutter, tannin added at 6% DM, Experiment 1
[23] = Sutter, tannin added at 10% DM, Experiment 2
[24] = Sutter, tannin added at 15% DM, Experiment 2

| SMILES | % Difference from control [1] | % Difference from control [2] | % Difference from control [3] | % Difference from control [4] | % Difference from control [5] | % Difference from control [6] | Net ammonium-N in supernatant [7] | Net ammonium-N in supernatant [8] | Net ammonium-N in supernatant [9] | Net ammonium-N in supernatant [10] | Net ammonium-N in supernatant [11] | Net ammonium-N in supernatant [12] | Net ammonium-N in supernatant [13] | Net ammonium-N in supernatant [14] | Net ammonium-N in supernatant [15] | Net ammonium-N in supernatant [16] | Net ammonium-N in supernatant [17] | Net ammonium-N in supernatant [18] | % Difference from control [19] | % Difference from control [20] | further results |
| --- | --- | --- | --- | --- | --- | --- | --- | --- | --- | --- | --- | --- | --- | --- | --- | --- | --- | --- | --- | --- | --- |
| O=C(O)c1cc(O)c(O)c(O)c1 [GA, 3,4,5-trihydroxybenzoic acid] | +3.20% | +4.92% | +1.68% | +5.63% | −1.33% | −3.54% | 3.610 (0.338) mg | 3.670 (0.404) mg | 3.450 (0.240) mg | 3.695 (0.305) mg | 3.348 (0.254) mg | 3.273 (0.234) mg | 3.540 (0.432) mg | 3.608 (0.564) mg | 3.415 (0.191) mg | 3.575 (0.431) mg | 3.348 (0.206) mg | 3.298 (0.177) mg | +0.48% | −2.41% | % Difference from control [21]: +0.21%; % Difference from control [22]: +1.48%; % Difference from control [23]: −1.76%; % Difference from control [24]: −3.23%; Effect on ammonia-N (in words): did not show any affect |
| O=C(OC[C@H]1O[C@@H](OC(=O)c2cc(O)c(O)c(OC(=O)c3cc(O)c(O)c(O)c3)c2)[C@H](OC(=O)c2cc(O)c(O)c(OC(=O)c3cc(O)c(O)c(O)c3)c2)[C@@H](OC(=O)c2cc(O)c(O)c(OC(=O)c3cc(O)c(O)c(O)c3)c2)[C@@H]1OC(=O)c1cc(O)c(O)c(OC(=O)c2cc(O)c(O)c(O)c2)c1)c1cc(O)c(O)c(OC(=O)c2cc(O)c(O)c(O)c2)c1 [TA, tannic acid] | −0.66% | −4.00% | −16.23% | −8.52% | −26.23% | −48.57% | 3.475 (0.269) mg | 3.358 (0.231) mg | 2.830 (0.435) mg | 3.200 (0.308) mg | 2.503 (0.177) mg | 1.745 (0.204) mg | 3.168 (0.737) mg | 3.250 (0.424) mg | 3.030 (0.167) mg | 2.998 (0.310) mg | 2.543 (0.208) mg | 1.888 (0.139) mg | −10.08% | −7.75% | % Difference from control [21]: −11.09%; % Difference from control [22]: −14.90%; % Difference from control [23]: −25.38%; % Difference from control [24]: −44.60%; Effect on ammonia-N (in words): effective in reducing ammonia-N |
